Laboratory results reported in PubChem BioAssay AID588385 (NMMLSC, 2011).
Activity calls are given as the source filed them.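 The calls were made as follows: active = EC50 at most 10 µM,% response shifting 30 points or more across doses, valid curve fit; inactive = the rest.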

Target: Cell division control protein 42 homolog (Homo sapiens) (UniProt P60953)
Experiment: wild-type Cdc42 fluorescent nucleotide binding blockers – biochemical, wildtype, bead multiplex, flow cytometry, round 1, SAR follow-up (AID 588385)
Settings: GST-Cdc42 wt beads, Bodipy-GTP binding

Chain of Cell division control protein 42 homolog (Homo sapiens) (P60953 whole entry, looked up): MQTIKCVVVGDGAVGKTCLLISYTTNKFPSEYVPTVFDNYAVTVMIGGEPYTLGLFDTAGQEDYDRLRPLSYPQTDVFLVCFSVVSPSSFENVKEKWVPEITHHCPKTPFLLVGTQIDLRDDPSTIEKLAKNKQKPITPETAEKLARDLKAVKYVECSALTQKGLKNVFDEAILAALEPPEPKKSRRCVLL

Question: `CC1(C)Cc2c(sc(NC(=S)NC(=O)c3ccccc3F)c2C(=O)O)CO1` was tested. Which EC50 did it give?
Answer: 0.08 µM

Question: With `O=C(NC(=S)Nc1sc2c(c1C(=O)O)CCOC2)c1ccccc1` as the molecule, how does the EC50 read?
Answer: 0.04 µM

Question: Which EC50 does the source give for `CC1(C)Cc2c(sc(NC(=S)NC(=O)c3cccc(F)c3)c2C(=O)O)CO1` here?
Answer: 0.319 µM

Question: `CC1Cc2c(sc(NC(=S)NC(=O)c3ccccc3)c2C(=O)O)CO1` (stereo unspecified) was tested. Which EC50 did it give?
Answer: 0.405 µM

Question: For `CC1(C)CCc2sc(NC(=S)NC(=O)c3ccccc3)c(C(=O)O)c2C1`, which EC50 is on record?
Answer: 0.168 µM

Question: `COc1ccc(C(=O)NC(=S)Nc2sc3c(c2C(=O)O)CC(C)(C)OC3)cc1` was tested. Which EC50 did it give?
Answer: 0.501 µM

Question: For `CC1(C)Cc2c(sc(NC(=S)NC(=O)c3ccc(Br)cc3)c2C(=O)O)CO1`, which EC50 is on record?
Answer: 0.452 µM

Question: With `CC1(C)Cc2c(sc(NC(=S)NC(=O)c3ccccc3Br)c2C(=O)O)CO1` as the molecule, how does the EC50 read?
Answer: 0.091 µM

Question: Which EC50 does the source give for `COc1cccc(C(=O)NC(=S)Nc2sc3c(c2C(=O)O)CC(C)(C)OC3)c1` here?
Answer: 0.082 µM

Same assay, conditions: GST-Cdc42 wt beads, Bodipy-GTP binding, at 100 µM (top of the series)

Question: `CCOC(=O)c1c(N)sc2ccccc12` was tested. Which “% response (lower = inhibition)” value did it give?
Answer: inactive

Question: With `CC(C)(C)OC(=O)c1c(NC(=S)NC(=O)c2ccccc2)sc2c1CCOC2` as the molecule, how does the “% response (lower = inhibition)” value read?
Answer: inactive

Question: Which “% response (lower = inhibition)” value does the source give for `CC1(C)Cc2c(sc(NC(=O)Cc3ccccc3)c2C(=O)O)CO1` here?
Answer: inactive

Question: How did the “% response (lower = inhibition)” value turn out when `CCOC(=O)c1c(NC(=S)Nc2ccccc2)sc2c1CC(C)(C)OC2` was run?
Answer: inactive

Question: With `CC1(C)Cc2c(sc(NC(=S)NC(=O)c3cccc(Br)c3)c2C(=O)O)CO1` as the molecule, how does the “% response (lower = inhibition)” value read?
Answer: inactive

Question: With `CCOC(=O)c1c(NC(=S)NC(=O)c2ccccc2)sc2ccccc12` as the molecule, how does the “% response (lower = inhibition)” value read?
Answer: inactive

Question: How did the “% response (lower = inhibition)” value turn out when `Cc1ccc(Nc2nc3sc4c(c3c(=O)o2)CCN(C)C4)cc1` was run?
Answer: inactive

Question: With `CN1CCc2c(sc(NC(=O)Nc3ccc(F)cc3)c2C(=O)O)C1` as the molecule, how does the “% response (lower = inhibition)” value read?
Answer: inactive

Question: `COC(=O)c1c(N)sc2c1CC(C)(C)OC2` was tested. Which “% response (lower = inhibition)” value did it give?
Answer: inactive

Question: Which “% response (lower = inhibition)” value does the source give for `CN1CCc2c(sc3nc(Nc4ccc(F)cc4)oc(=O)c23)C1` here?
Answer: inactive

Question: How did the “% response (lower = inhibition)” value turn out when `CCOC(=O)c1c(NC(=O)Nc2ccc(F)cc2)sc2c1CCN(C)C2` was run?
Answer: inactive

Question: Which “% response (lower = inhibition)” value does the source give for `CCOC(=O)c1c(NC(=O)Nc2ccc(C)cc2)sc2c1CCN(C)C2` here?
Answer: inactive

Question: `COC(=O)c1c(NC(=S)NC(=O)c2ccccc2)sc2c1CC(C)(C)OC2` was tested. Which “% response (lower = inhibition)” value did it give?
Answer: inactive

Question: For `Cc1ccc(NC(=O)Nc2sc3c(c2C(=O)O)CCN(C)C3)cc1`, which “% response (lower = inhibition)” value is on record?
Answer: inactive

Question: How did the “% response (lower = inhibition)” value turn out when `CC1(C)Cc2c(sc(NC(=S)Nc3ccccc3)c2C(=O)O)CO1` was run?
Answer: inactive

Question: With `CCOC(=O)c1c(NC(=O)NC(C)(C)C)sc2c1CCN(C)C2` as the molecule, how does the “% response (lower = inhibition)” value read?
Answer: inactive

Question: Which “% response (lower = inhibition)” value does the source give for `CC1(C)Cc2c(sc(NC(=O)NC(=O)c3ccccc3)c2C(=O)O)CO1` here?
Answer: inactive
